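Five compound concentrations were applied to cells in 96-well plates for 48 hours; endpoints were derived by simple linear interpolation of the resulting dose-response curve. Here, GI50 denotes the concentration required for 50% inhibition of growth.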 Calls of active or inactive are those of the source. Rule as the data show it: active = GI50 up to about 1.1 µM and inactive = higher.

The source of these data is ChEMBL document CHEMBL1201862, “PubChem BioAssay data set” (2004).

Some test systems named below: A498; A549; ACHN; COLO 205; KM12; LOX IMVI; M14; MCF7; MDA-MB-231; Malme-3M; NCI-H460; OVCAR-4; SF-539; SK-MEL-5; U-251; DU-145; HL-60; HT-29; Hs-578T; SR.
Common to all, as to test: DTP human tumour cell line panel, 48 h

As for `Cc1cc2[nH]c3c(C#N)c(-c4ccccc4)c(/N=N/c4cccc(C(F)(F)F)c4)c(=O)n3c2cc1C`, the GI50 in the assay with A498 was 88.5 µM (inactive); with A549, 25.3 µM (inactive); in the assay with ACHN, 37.5 µM (inactive); in the assay with COLO 205, 42.2 µM (inactive); in the assay on KM12, 31.6 µM (inactive); in the assay on LOX IMVI, 49.1 µM (inactive). Moreover, the GI50 is 34.4 µM (inactive) with M14; 50.4 µM (inactive) with MCF7; 85.5 µM (inactive) with MDA-MB-231; 42.9 µM (inactive) in the assay on Malme-3M; 21.4 µM (inactive) with NCI-H460; 39.5 µM (inactive) in the assay on OVCAR-4. Besides, the values for the GI50 with SF-539, in the assay with SK-MEL-5 and in the assay with U-251 were 97.5 µM (inactive), 15.7 µM (inactive) and 39.3 µM (inactive), respectively.
Turning to `Cc1ccc(Nc2nc(=O)c3c4ccccc4n(C(=O)OC(C)(C)C)c3s2)cc1`, the GI50 in the assay on A498 is 39.1 µM (inactive); in the assay on A549, 28.8 µM (inactive); with ACHN it was 35.5 µM (inactive); with COLO 205, 35.4 µM (inactive); in the assay on DU-145 it was 33.7 µM (inactive); in the assay on HL-60, 24.8 µM (inactive). For the same molecule, the GI50 in the assay with HT-29 is 30.1 µM (inactive); with Hs-578T, 33.2 µM (inactive); in the assay on KM12, 16.7 µM (inactive); in the assay with LOX IMVI it was 18.7 µM (inactive); with M14, 14.7 µM (inactive); in the assay with MDA-MB-231, 33.1 µM (inactive). For the same molecule, the GI50 was 28.4 µM (inactive) in the assay with Malme-3M; 15.7 µM (inactive) in the assay with NCI-H460; 37.9 µM (inactive) in the assay on OVCAR-4; 26.6 µM (inactive) in the assay with SF-539; 13.2 µM (inactive) in the assay with SK-MEL-5; 12.8 µM (inactive) in the assay with SR. Besides, in the assay on U-251, the GI50 is 30.1 µM (inactive).
On to `CC(=O)c1cccc(Nc2nc3ccccc3c3occc23)c1`, for which the GI50 was 9.98 µM (inactive) with A498; 13.5 µM (inactive) with A549; 14.3 µM (inactive) in the assay with ACHN; > 100 µM (inactive) in the assay on COLO 205; 33.6 µM (inactive) in the assay on DU-145; > 100 µM (inactive) with HL-60. In addition, the GI50 in the assay on HT-29 is 6.22 µM (inactive); with KM12, 49.7 µM (inactive); in the assay on LOX IMVI, 46.2 µM (inactive); in the assay on M14, 35.2 µM (inactive); with MCF7, 25.1 µM (inactive); in the assay on MDA-MB-231 it was 24.8 µM (inactive). In addition, the GI50 was 19.9 µM (inactive) with Malme-3M; 20.5 µM (inactive) in the assay on NCI-H460; 16.2 µM (inactive) in the assay with OVCAR-4; 15.5 µM (inactive) in the assay with SF-539; 12.7 µM (inactive) in the assay with SK-MEL-5; 47 µM (inactive) in the assay with SR. In addition, in the assay on U-251, the GI50 was 17.9 µM (inactive).
`CCc1cccc(C)c1NC(=S)NC(=O)c1ccccc1C(=O)NC(=S)Nc1c(C)cccc1CC`: the GI50 was > 100 µM (inactive) in the assay on A498; 90.4 µM (inactive) in the assay on A549; > 100 µM (inactive) with ACHN; 61.1 µM (inactive) in the assay on COLO 205; 40.6 µM (inactive) with HL-60; 43 µM (inactive) in the assay with HT-29. Besides, the GI50 in the assay on KM12 was 77.1 µM (inactive); in the assay on LOX IMVI, > 100 µM (inactive); with M14 it was > 100 µM (inactive); in the assay with Malme-3M, > 100 µM (inactive); with NCI-H460, 67.8 µM (inactive); in the assay on OVCAR-4, 69.3 µM (inactive). In addition, the GI50 in the assay on SF-539 is > 100 µM (inactive); in the assay on SK-MEL-5, > 100 µM (inactive); with SR, 38.4 µM (inactive); in the assay on U-251, 67.6 µM (inactive).
As for `COc1ccc(NCc2cc(OC)cc(OC)c2)cc1`, the GI50 is 27.5 µM (inactive) in the assay on A498; 17.6 µM (inactive) in the assay on A549; 45.6 µM (inactive) with ACHN; 9.33 µM (inactive) in the assay on COLO 205; 7.6 µM (inactive) in the assay with HL-60; 6.7 µM (inactive) in the assay with HT-29. The GI50 is 5.7 µM (inactive) in the assay on KM12; 25.2 µM (inactive) with LOX IMVI; 22.2 µM (inactive) in the assay with M14; 40.4 µM (inactive) with Malme-3M; 20.1 µM (inactive) with NCI-H460; 18.5 µM (inactive) in the assay on OVCAR-4. The GI50 with SF-539 was 16.3 µM (inactive); with SK-MEL-5 it was 9.91 µM (inactive); in the assay with SR it was 13.1 µM (inactive); with U-251 it was 24.4 µM (inactive).
As for `COc1c(O)c(OC)c2oc(-c3ccc(O)c(O)c3)c(OC)c(=O)c2c1O`, the GI50 is 31.6 µM (inactive) in the assay on A498; 35.6 µM (inactive) in the assay on A549; 31.4 µM (inactive) with ACHN; 27.1 µM (inactive) in the assay with COLO 205; 24.2 µM (inactive) in the assay with DU-145; 17.7 µM (inactive) with HL-60. In addition, the GI50 in the assay on HT-29 was 30.7 µM (inactive); with KM12 it was 48.3 µM (inactive); with LOX IMVI, 23.9 µM (inactive); in the assay on M14 it was 17.6 µM (inactive); in the assay with MCF7, 4.1 µM (inactive); with MDA-MB-231, 23.1 µM (inactive). Besides, the GI50 is 6.24 µM (inactive) with Malme-3M; 35.9 µM (inactive) with NCI-H460; 55 µM (inactive) with OVCAR-4; 14.6 µM (inactive) in the assay with SF-539; 11.8 µM (inactive) with SK-MEL-5; 28.7 µM (inactive) with SR. For the same molecule, the GI50 with U-251 was 16.9 µM (inactive).
Turning to `O=C(CN1CCN(Cc2ccccc2)CC1)c1ccc2[nH]c(=O)oc2c1`, the GI50 in the assay with A498 was > 100 µM (inactive); in the assay on A549, > 100 µM (inactive); in the assay on ACHN, > 100 µM (inactive); in the assay with COLO 205 it was > 100 µM (inactive); in the assay with DU-145, > 100 µM (inactive); in the assay on HL-60 it was > 90.4 µM (inactive). Also, the GI50 in the assay with HT-29, with KM12, in the assay with LOX IMVI, with M14, in the assay on MCF7 and in the assay with MDA-MB-231 was > 100 µM (inactive) in each case. For the same molecule, the GI50 with Malme-3M is 0.845 µM (active); with NCI-H460 it was > 100 µM (inactive); in the assay with OVCAR-4, > 100 µM (inactive); in the assay on SF-539, > 100 µM (inactive); with SK-MEL-5 it was > 100 µM (inactive); in the assay on SR, > 67.1 µM (inactive). Besides, the GI50 with U-251 is > 88.7 µM (inactive).
On to `O=C1C(=O)N(C2CCCCC2)C(=S)N1C1CCCCC1`, for which the GI50 in the assay with A498, with A549, with ACHN, in the assay with COLO 205, in the assay with DU-145 and in the assay with HL-60 was > 100 µM (inactive) in each case. Also, the GI50 with HT-29, in the assay with Hs-578T, in the assay with KM12, in the assay with LOX IMVI, in the assay on MDA-MB-231 and with Malme-3M was > 100 µM (inactive) in each case. Further, the GI50 in the assay with NCI-H460, with OVCAR-4, in the assay with SF-539, in the assay with SK-MEL-5, in the assay on SR and with U-251 was > 100 µM (inactive) throughout.
For `Cc1ccc(S(=O)(=O)/N=C(\NN)Nc2ccc(Cl)cc2)cc1`, the GI50 with A498, with A549, in the assay with ACHN, in the assay with COLO 205, in the assay on DU-145 and in the assay with HL-60 was > 100 µM (inactive) throughout. Also, the GI50 in the assay on HT-29, in the assay on KM12, in the assay on LOX IMVI, with M14, with MCF7 and in the assay with MDA-MB-231 was > 100 µM (inactive) each time. The GI50 in the assay on NCI-H460 was > 100 µM (inactive); with OVCAR-4, > 100 µM (inactive); in the assay on SF-539 it was 35.2 µM (inactive); in the assay with SK-MEL-5, > 100 µM (inactive); in the assay on SR, 83.9 µM (inactive); in the assay with U-251 it was > 100 µM (inactive).
`CS(=O)(=O)OC1CCC2(C#N)CCC1C2=O` (stereo unspecified): the GI50 in the assay on A498 is > 100 µM (inactive); with A549, > 100 µM (inactive); in the assay with ACHN, > 100 µM (inactive); with COLO 205, 70.8 µM (inactive); with HL-60, > 100 µM (inactive); in the assay on HT-29 it was > 100 µM (inactive). For the same molecule, the GI50 in the assay on KM12 was > 100 µM (inactive); in the assay on LOX IMVI, > 100 µM (inactive); with M14 it was 71.3 µM (inactive); in the assay with Malme-3M, > 100 µM (inactive); in the assay on NCI-H460, 95.3 µM (inactive); in the assay on OVCAR-4 it was > 100 µM (inactive). Further, the GI50 is > 100 µM (inactive) in the assay with SF-539, > 100 µM (inactive) in the assay on SK-MEL-5, 19.8 µM (inactive) in the assay on SR and > 100 µM (inactive) with U-251.
Consider `Cc1cccc2cc3cccc(C(=O)NCCN(C)C)c3nc12`, for which the 50% growth inhibitory concentration (GI50) with A498 was 0.045 µM (active); in the assay on A549, 0.0171 µM (active); in the assay on ACHN, 0.0257 µM (active); in the assay on COLO 205, 0.0798 µM (active); in the assay with HL-60, 0.028 µM (active); in the assay with HT-29 it was 0.131 µM (active). Besides, the 50% growth inhibitory concentration (GI50) is 0.397 µM (active) with KM12; 0.083 µM (active) in the assay on LOX IMVI; 0.433 µM (active) in the assay on M14; 0.139 µM (active) with Malme-3M; < 0.01 µM (active) in the assay on NCI-H460; 0.27 µM (active) in the assay on OVCAR-4. Also, the GI50 is 0.129 µM (active) in the assay with SF-539, 0.173 µM (active) in the assay with SK-MEL-5, 0.0224 µM (active) with SR and 0.0689 µM (active) with U-251.

One may read the GI50 as the concentration that inhibits growth by half.
